From patent US4012576A, “Antibiotic complex Bu 2183” (priority 1975, dated 1977)
In brackets after ≈: the same amount, converted by molar mass. Where two headings read alike, the source gives them in different places.

Assays:
[1] = Acute toxicity in mice; conditions: for no death at doses up to: 21600 min
Method: The acute toxicity of Bu-2183 A and B was determined in mice by the subcutaneous and intravenous routes.

[2] = test system: S. aureus Smith, E. coli NIHJ and Ps. aeruginosa A9930; assay: Experimental infections of mice (all three pathogens); format: in vivo; conditions: subcutaneous
Method: Bu-2183 A and B were evaluated in vivo in experimental infections of mice. The pathogenic bacteria employed were S. aureus Smith, E. coli NIHJ and Ps. aeruginosa A9930. Mice were challenged with a 100 × LD50 dose of the pathogens in a 5% suspension of hog gastric mucin. A single subcutaneous treatment with the antibiotic was made immediately after the bacterial challenge (0 hour), and in a double dose schedule the antibiotic was administered at 0 and 3 hours after the challenge.

[3] = test system: E. coli A20732; assay: MIC, two-fold agar dilution on Nutrient Agar; format: cell-based
Method: (§1) The minimum inhibitory concentrations (MIC) of Bu-2183 A and B were determined against a wide variety of bacteria by the two-fold agar dilution method on Nutrient Agar plates. The inocula-replicating device of Steers et al. was used. Inoculum size was adjusted to be 10^4 dilution of overnight culture of the test organisms in Heart Infusion Broth (Difco). The results are shown in Table 6 along with those of kanamycin which was comparatively tested as a reference antibiotic.

[4] = test system: K. pneumoniae D11; assay: MIC, two-fold agar dilution on Nutrient Agar; format: cell-based; conditions: Klebsiella pneumoniae, read-out: MIC
Method: as §1

[5] = test system: Ps. aeruginosa A20896; assay: MIC, two-fold agar dilution on Nutrient Agar; format: cell-based; conditions: Pseudomonas aeruginosa, read-out: MIC
Method: as §1

[6] = test system: Pseudomonas sp. A20621; assay: MIC, two-fold agar dilution on Nutrient Agar; format: cell-based
Method: as §1

[7] = test system: Ps. aeruginosa A9930; assay: MIC, two-fold agar dilution on Nutrient Agar; format: cell-based
Method: as §1

[8] = test system: Ps. aeruginosa A20653; assay: MIC, two-fold agar dilution on Nutrient Agar; format: cell-based; conditions: Pseudomonas aeruginosa, read-out: MIC
Method: as §1

[9] = test system: Ent. cloacae A20364; assay: MIC, two-fold agar dilution on Nutrient Agar; format: cell-based
Method: as §1

[10] = test system: S. aureus D137; assay: MIC, two-fold agar dilution on Nutrient Agar; format: cell-based; conditions: Staphylococcus aureus, read-out: MIC
Method: as §1

[11] = test system: Pr. mirabilis A9554; assay: MIC, two-fold agar dilution on Nutrient Agar; format: cell-based; conditions: Proteus mirabilis, read-out: MIC
Method: as §1

[12] = test system: Gram-positive and Gram-negative bacteria; assay: In vitro antibacterial activity (general); format: cell-based; conditions: for antibacterial spectrum: in vitro
Method: as §1

[13] = test system: eight test organisms; assay: Effect of media on activity (overall); format: cell-based; conditions: pH 8; Nutrient Agar, Heart Infusion Agar, Mueller-Hinton Agar
Method: The effect of media on the activity of Bu-2183 A and B was determined against eight test organisms. The media tested were Nutrient Agar, Heart Infusion Agar and Mueller-Hinton Agar. The media pH was adjusted at pH 8.

[14] = test system: Ps. aeruginosa D 15; assay: Effect of media pH on MIC, two-fold agar dilution; format: cell-based; conditions: Pseudomonas aeruginosa, D15, Table 8, Nutrient Agar
Text: (§2) Effect of media pH on the MIC of Bu-2183 A was studied by two-fold agar dilution method using Nutrient Agar Medium at pH 6.0, 7.0, 8.0 and 9.0.

[15] = test system: E. coli NIHJ; assay: Effect of media pH on MIC, two-fold agar dilution; format: cell-based; conditions: Escherichia coli, Table 8, Nutrient Agar
Text: as §2

[16] = test system: B. subtilis PCI 219; assay: Effect of media pH on MIC, two-fold agar dilution; format: cell-based; conditions: Bacillus subtilis, PCI219, Table 8, Nutrient Agar
Text: as §2

[17] = test system: S. aureus Smith; assay: Effect of media pH on MIC, two-fold agar dilution; format: cell-based; conditions: Staphylococcus aureus, Table 8, Nutrient Agar
Text: as §2

[18] = test system: K. pneumoniae D 11; assay: Effect of media pH on MIC, two-fold agar dilution; format: cell-based; conditions: Klebsiella pneumoniae, D11, Table 8, Nutrient Agar
Text: as §2

[19] = test system: E. coli, K. pneumoniae, Ps. aeruginosa, S. aureus, B. subtilis; assay: Effect of media pH on MIC (overall); format: cell-based; conditions: Nutrient Agar, pH 6.0-9.0
Text: as §2

[20] = Escherichia coli, A20732, Table 6, Ec-72, read-out: MIC
[21] = Pseudomonas, SP.A20621, Table 6, Px-10, read-out: MIC
[22] = Pseudomonas aeruginosa, A9930, Table 6, Pa-3, read-out: MIC
[23] = Enterobacter cloacae, A20364, Table 6, El-2, read-out: MIC

## CC(=O)NC1C(CO)OC(OC(C(O)CN)C(N)C(O)CO)C(O)C1O (stereo not shown) [Bu-2183 B]
[1]; mice, i.v. and s.c.
  acute toxicity compared with Bu-2183 A: much less toxic than Bu-2183 A
[1]; mouse, in vivo, iv
  no death at doses up to: ≥ 2000 mg/kg
[1]; mouse, in vivo, sc
  no death at doses up to: ≥ 2000 mg/kg
[2]
  in vivo activity: afforded in vivo activity against all three of the infections tested
[3]; [20]
  MIC: 25 µg/mL (≈ 65.2 µM)
[4]; D11, Table 6, Kp-1
  MIC: 12.5 µg/mL (≈ 32.6 µM)
[5]; A20896, Table 6, Pa-24
  MIC: 100 µg/mL (≈ 261 µM)
[6]; [21]
  MIC: > 100 µg/mL
[7]; [22]
  MIC: 25 µg/mL (≈ 65.2 µM)
[8]; A20653, Table 6, Pa-12
  MIC: 100 µg/mL (≈ 261 µM)
[9]; [23]
  MIC: 50 µg/mL (≈ 130 µM)
[10]; D137, Table 6, Sa-9
  MIC: > 100 µg/mL
[11]; A9554, Table 6, Pm-1
  MIC: 25 µg/mL (≈ 65.2 µM)
[12]
  bio-activity: bio-active
  intrinsic activity in terms of MIC values: moderate or rather weak
[12]; listed as B
  antibacterial spectrum: broad spectrum of antibacterial activity against Gram-positive and Gram-negative bacteria including many of the aminoglycoside-resistant organisms and Pseudomonas strains
[13]
  medium of greatest in vitro activity: the greatest in vitro activity was demonstrated when Nutrient Agar was used

## CCC(=O)NC1C(CO)OC(OC(C(O)CN)C(N)C(O)CO)C(O)C1O (stereo not shown) [Bu-2183 A]
[1]; mouse, in vivo, iv
  LD50: 2500 mg/kg
[1]; mouse, in vivo, sc
  LD50 at 360 h: 1000 mg/kg
[2]
  in vivo activity: afforded in vivo activity against all three of the infections tested
[3]; [20]
  MIC: 12.5 µg/mL (≈ 31.5 µM)
[3]; Table 7, Ec-72
  MIC: 12.5 µg/mL (≈ 31.5 µM)
[4]; D11, Table 6, Kp-1
  MIC: 3.1 µg/mL (≈ 7.8 µM)
[4]; D11, Table 7, Kp-1
  MIC: 6.3 µg/mL (≈ 15.9 µM)
[5]; A20896, Table 6, Pa-24
  MIC: 25 µg/mL (≈ 62.9 µM)
[5]; A20896, Table 7, Pa-24
  MIC: 50 µg/mL (≈ 126 µM)
[6]; [21]
  MIC: > 100 µg/mL
[6]; Table 7, Px-10
  MIC: > 100 µg/mL
[7]; [22]
  MIC: 12.5 µg/mL (≈ 31.5 µM)
[7]; Table 7, Pa-3
  MIC: 12.5 µg/mL (≈ 31.5 µM)
[8]; A20653, Table 6, Pa-12
  MIC: 25 µg/mL (≈ 62.9 µM)
[8]; A20653, Table 7, Pa-12
  MIC: 50 µg/mL (≈ 126 µM)
[9]; [23]
  MIC: 25 µg/mL (≈ 62.9 µM)
[9]; Table 7, El-2
  MIC: 25 µg/mL (≈ 62.9 µM)
[10]; D137, Table 6, Sa-9
  MIC: 100 µg/mL (≈ 252 µM)
[10]; D137, Table 7, Sa-9
  MIC: 50 µg/mL (≈ 126 µM)
[11]; A9554, Table 6, Pm-1
  MIC: 12.5 µg/mL (≈ 31.5 µM)
[11]; A9554, Table 7, Pm-1
  MIC: 25 µg/mL (≈ 62.9 µM)
[14]; pH 6
  MIC: > 50 µg/mL
[14]; pH 7
  MIC: 50 µg/mL (≈ 126 µM)
[14]; pH 8
  MIC: 25 µg/mL (≈ 62.9 µM)
[14]; pH 9
  MIC: 12.5 µg/mL (≈ 31.5 µM)
[15]; pH 6
  MIC: > 50 µg/mL
[15]; pH 7
  MIC: 50 µg/mL (≈ 126 µM)
[15]; pH 8
  MIC: 25 µg/mL (≈ 62.9 µM)
[15]; pH 9
  MIC: 12.5 µg/mL (≈ 31.5 µM)
[16]; pH 6
  MIC: 50 µg/mL (≈ 126 µM)
[16]; pH 7
  MIC: 6.3 µg/mL (≈ 15.9 µM)
[16]; pH 8
  MIC: 6.3 µg/mL (≈ 15.9 µM)
[16]; pH 9
  MIC: 6.3 µg/mL (≈ 15.9 µM)
[17]; pH 6
  MIC: > 50 µg/mL
[17]; pH 7
  MIC: 50 µg/mL (≈ 126 µM)
[17]; pH 8
  MIC: 50 µg/mL (≈ 126 µM)
[17]; pH 9
  MIC: 50 µg/mL (≈ 126 µM)
[18]; pH 6
  MIC: 12.5 µg/mL (≈ 31.5 µM)
[18]; pH 7
  MIC: 12.5 µg/mL (≈ 31.5 µM)
[18]; pH 8
  MIC: 12.5 µg/mL (≈ 31.5 µM)
[18]; pH 9
  MIC: 3.1 µg/mL (≈ 7.8 µM)
[12]
  bio-activity: bio-active
  intrinsic activity in terms of MIC values: moderate or rather weak
  antibacterial spectrum: broad spectrum of antibacterial activity against Gram-positive and Gram-negative bacteria including many of the aminoglycoside-resistant organisms and Pseudomonas strains
[12]; MIC, Table 6
  activity of component A relative to B: 2-4 fold
[19]
  effect of media pH on activity: increased at alkaline pH and decreased at acidic pH
[13]
  medium of greatest in vitro activity: the greatest in vitro activity was demonstrated when Nutrient Agar was used
